Reference: US10702489B2, “Treatment of nervous system disorders using combinations of RXR agonists and thyroid hormones” (IO Therapeutics, Inc., priority 2015, dated 2020)
Entries after “also recorded” stand apart in the source; their conditions may differ.

Tests used:
[1] = system: C57BL/6 (B6) mice with EAE; test: CNS infiltrating cells in EAE B6 mice; format: in vivo, mouse; settings: day 20 after immunization
Method: To determine whether a RXR agonist can reduce central nervous system (CNS) infiltrating cells, C57BL/6 (B6) mice were treated as described in Example 6. On day 20 after immunization, mice were sacrificed and perfused with phosphate buffered saline (PBS). Brain and spinal cord tissue was isolated, digested with DNase and LIBERASE DL® (Roche Diagnostics, Indianapolis, Ind.) for 30 minutes, and homogenized through 70 micron nylon mesh filters. Resulting cells were placed over a Percoll gradient to remove myelin. The remaining cells (microglia and CNS infiltrating cells) were counted, stained for molecules of interest, and run on a flow cytometer. Based on the frequencies obtained by FACS of these cell populations, total cell numbers of CNS infiltrating leukocytes expressing CD45, including CD4^+ T cells and CD11c^+ CD11b^+ myeloid dendritic cells (DC), were calculated.

[2] = target: T1, RXRα (Homo sapiens, UniProt P19793)
T1 sequence (P19793 1-462): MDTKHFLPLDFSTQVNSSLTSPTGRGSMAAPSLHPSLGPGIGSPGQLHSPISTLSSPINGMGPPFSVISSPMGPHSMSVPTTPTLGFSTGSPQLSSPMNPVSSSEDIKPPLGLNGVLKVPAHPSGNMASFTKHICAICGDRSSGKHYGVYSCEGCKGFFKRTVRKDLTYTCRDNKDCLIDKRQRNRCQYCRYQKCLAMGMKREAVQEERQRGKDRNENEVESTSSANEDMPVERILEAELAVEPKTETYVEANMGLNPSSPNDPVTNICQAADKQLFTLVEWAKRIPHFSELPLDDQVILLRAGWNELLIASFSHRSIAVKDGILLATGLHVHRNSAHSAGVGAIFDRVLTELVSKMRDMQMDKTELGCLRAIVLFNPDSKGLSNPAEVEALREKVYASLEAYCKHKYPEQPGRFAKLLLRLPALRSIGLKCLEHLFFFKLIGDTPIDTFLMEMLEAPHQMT
Method: (§1) To determine whether a RXR agonist can mediate its effects via RXRα receptor homodimers, RXRβ receptor homodimers, RXRγ receptor homodimers, or any combination thereof, or the corresponding RAR/RXR heterodimers, receptor-mediated transactivation assays were performed. For transactivation assays assessing RXR homodimer signaling, CV-1 cells were transfected with 1) an expression construct including a full length RXRα, RXRβ, or RXRγ; and 2) a rCRBPII/RXRE-tk-Luc reporter construct that included RXR homodimer-specific RXRE/DR1 responsive element linked to a luciferase gene. For transactivation assays assessing RAR/RXR heterodimer signaling, CV-1 cells were transfected with 1) an expression construct comprising a fusion protein including an estrogen receptor (ER) DNA binding domain linked to the ligand binding domain of RARα, RARβ, or RARγ and 2) a ERE-tk-Luc reporter construct that included an estrogen receptor responsive element linked to a luciferase gene. […] Data are mean values±SE from five independent experiments.

[3] = target: RXRγ (Homo sapiens, UniProt P48443)
Method: as §1

[4] = system: SJL mice with EAE; test: EAE in SJL mice, PLP peptide; format: in vivo, mouse
Method: To determine whether a RXR agonist can attenuate multiple sclerosis, SJL mice were immunized to induce EAE by s.c. injection at the base of their spine with 200 μL of adjuvant containing 200 μg proteolipid proteins (139-151) (PLP peptide; Peptides International, Louisville, Ky.) and 400 μg of non-viable M. tuberculosis H37 desiccate emulsified in a mixture of incomplete Freund's adjuvant and PBS. Mice were also given 150 ng of pertussis toxin in PBS i.p. on the same day as PLP emulsion injection and 2 days later. […] Mice were scored using the scale described in Example 3.

[5] = system: oligodendrocyte precursor cells (OPCs); test: oligodendrocyte precursor cell differentiation (PLP-EGFP); format: cell-based, mouse
Excerpt: OPCs were generated from a neurosphere culture of E14.5 PLP-EGFP (on C57BL/6J background) mouse brains. […] The EGFP expressing cells were quantified with Cellomics Neuronal Profiling Algorithm.
The EGFP expressing cells in controls and all compounds were quantified with Cellomics Neuronal Profiling Algorithm.

[6] = system: rat 6-OHDA induced Parkinson Disease (PD) model; test: rat 6-OHDA induced Parkinson Disease model, paw placement (cylinder test); format: in vivo; settings: day 24; IRX4204 10 mg/kg PO, T3 1.5 μg/kg and T4 9 μg/kg SC
Method: The paw placement (cylinder test) was used for assessment of the damage. This test assessed a rat's independent forelimb use to support the body against the walls of a cylindrical enclosure. The test took advantage of the animals' innate drive to explore a novel environment by standing on the hind limbs and leaning towards the enclosing walls.
To perform this test, rats were placed individually in a glass cylinder (21 cm diameter, 34 cm height) and wall exploration was recorded for 3 minutes. No habituation to the cylinder prior to recording was allowed.
The statistical analysis was performed as ratio between the intact and impaired legs (R/L ratio). The ratio was expressed as the values of intact right+both forelimbs divided by the values of impaired left +both forelimbs. A lower value of the ratio means greater healing of the 6-OHDA induced brain damage.
Once a week during three weeks (study days 10, 17 and 24), the animals were re-tested for their performance in the paw placement test.

[7] = system: C57BL/6 (B6) mice with experimental autoimmune encephalomyelitis (EAE); test: EAE in C57BL/6 (B6) mice, MOG peptide; format: in vivo, mouse; settings: IRX4204 50 μg every other day from day 7 to day 20
Method: Mice were also given 200 ng of pertussis toxin in PBS administered by inter-peritoneal (i.p.) injection on the same day as MOG emulsion injection (day 0) and 2 days later (day 2). […] Mice were scored using the following scale: 0—Mice have no disease, 1—Mice have distal limp tail or rear leg weakness (paresis), 1.5—Mice have distal limp tail and rear leg weakness, 2—Mice have complete limp tail and rear leg weakness, 2.5—Mice have complete limp tail and weakness in both rear legs, 3—Mice have complete limp tail and paralysis in both rear legs, 3.5—Mice have complete limp tail, paralysis in both rear legs, and forelimb weakness. Mice receiving a score of 3.5 were immediately euthanized.

[8] = system: C57BL/6J mice with cuprizone+rapamycin demyelination; format: in vivo
[9] = system: B6 mice with EAE; test: EAE dose titration in B6 mice with spleen and CNS analysis; format: in vivo, mouse
Method: A dose titration experiment was also conducted in EAE mice. EAE was induced in 28 B6 mice with MOG/CFA and PT as above. Mice were scored on day 7 as indicated above and divided into groups by score so means are as equal as possible.
At the completion of the experiment, the vehicle control and 200 μg/day groups were euthanized and spleen and CNS samples obtained.

[10] = 50 μg i.p. every other day from day 7, n=6
[11] = 200 μg/day, restimulation with PMA/Ionomycin

Sequence of RXRγ (P48443 whole entry): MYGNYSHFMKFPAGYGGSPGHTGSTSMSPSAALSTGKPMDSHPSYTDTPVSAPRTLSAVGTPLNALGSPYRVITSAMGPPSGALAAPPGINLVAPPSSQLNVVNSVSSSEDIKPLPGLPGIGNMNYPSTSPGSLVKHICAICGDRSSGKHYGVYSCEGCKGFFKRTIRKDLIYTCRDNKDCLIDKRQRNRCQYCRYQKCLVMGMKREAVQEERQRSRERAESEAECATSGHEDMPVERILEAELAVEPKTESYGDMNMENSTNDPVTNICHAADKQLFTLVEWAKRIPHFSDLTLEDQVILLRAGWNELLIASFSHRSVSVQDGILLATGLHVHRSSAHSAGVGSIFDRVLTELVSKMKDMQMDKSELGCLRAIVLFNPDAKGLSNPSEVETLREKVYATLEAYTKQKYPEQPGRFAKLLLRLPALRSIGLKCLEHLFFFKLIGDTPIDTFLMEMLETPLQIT

Structure (SMILES): CC(/C=C/[C@@H]1C[C@]1(C)c1ccc2c(c1)C(C)(C)CCC2(C)C)=C\C(=O)O [IRX4204, 3,7-dimethyl-6(S),7(S)-methano,7-[1,1,4,4-tetramethyl-1,2,3,4-tetrahydronaphth-7-yl]2(E),4(E) heptadienoic acid]
- infiltration of CD4+ cells in to the CNS [1]: significant reduction
- infiltration of CD11c+ CD11b+ cells (myeloid DC) in to the CNS [1]: significant reduction
- Efficacy (% of 1 μM IRX4204) RXRα ([2]; CV-1 cells): 100 % of 1 μM IRX4204
- more potent in activating RXR receptors rather than RAR receptors ([2]; RXR versus RAR receptors): > 1,000 fold
- Efficacy (% of 1 μM IRX4204) RXRγ [3]: 100 % of 1 μM IRX4204
- Mean Maximum Score ([4]; 50 μg i.p. every other day from day 7): 1.5 ± 1.4
- Death from Disease [4, 10]: 0/6
- Disease Incidence [4, 10]: 4/6
- symptoms of EAE (scores of disease severity) ([4]; 50 μg i.p. every other day, to day 14): significantly reduces the symptoms of EAE
- OPC differentiation into oligodendrocytes (EGFP positive cells compared to DMSO) ([5]; all concentrations except the lowest (1^−6 μM)): significant increase; also recorded: dose dependent increase
- total cell number and pyknotic cells ([5]; compared to controls): did not show any differences
- mean body weight [6]: 157.17±2.93%
- symptoms of EAE (scores of disease severity over time) [7]: significantly reduces the symptoms of EAE
- terminal body weights ([8]; ANOVA, IRX4204 or vehicle groups): no significant difference
- number of SMI32 positive axonal ovoids in corpus callosum ([8]; IRX4204 10 mg/kg PO, T4 20 ng/g SQ, daily 6 weeks, versus Vehicle, 10 mg/kg): trend towards decreased number of axonal ovoids but was not statistically different from the Vehicle; also recorded: trend towards decrease in axonal ovoids, but it was statistically not different from vehicle
- microglial/macrophage activation (Iba1 staining) in corpus callosum ([8]; daily 6 weeks, versus vehicle): no difference
- decrease in T4 levels compared to vehicle control animals ([8]; terminal blood draw): ~50%
- disease overall (EAE score) ([9]; 50 μg, 100 μg or 200 μg every day from day 8): significantly less disease overall
- CCR6 expression on CD4 T cells, spleen ([9]; 200 μg/day): lowered
- CD4+ CD25hi cells (number), spleen ([9]; 200 μg/day): reduced
- co-expression of IFNg and IL-17A by CD4 T cells in CNS ([9]; 200 μg/day): not significantly different between groups
- frequency of CD4+ CD25hi cells, spleen ([9]; 200 μg/day): not altered
- total number of effector and memory CD4 T cells (CD44), spleen ([9]; 200 μg/day): decreased
- total number of infiltrating CD4 T cells in the CNS ([9]; 200 μg/day): reduced
- total number of recently activated CD4 T cells (CD69 and CD44), spleen ([9]; 200 μg/day): decreased
- IFNγ, CNS infiltrating lymphocytes [9, 11]: significantly reduced
- TNF, CNS infiltrating lymphocytes [9, 11]: significantly reduced
